From patent publication US20200331950A1, “SGLTS INHIBITOR AND APPLICATION THEREOF” (SHANDONG DANHONG PHARMACEUTICAL CO., LTD., priority 2018, published 2020)
pIC50: −log10 of the molar value. Marks after values point to notes of the source that are not given here.

Tests used:
SD rats [1] = experiment: Oral glucose tolerance test (OGTT) in rats, second time; format: in vivo; settings: second study, male SD rats, 10 mg/kg single intragastric administration
Method: Study on the In Vivo Efficacy of Oral Glucose Tolerance Test (OGTT) in Rats for the Second Time:
(§1) The experimental animals were allowed to adapt to the environment in the animal room for one week after they arrived.
(§2) The animals fasted in the metabolic cage for 18 hours, then were given drugs or vehicle (2 ml/kg) according to the above table, and subsequently were immediately given 50% glucose solution (2 g/kg, 4 ml/kg).
(§3) 2 hours after the administration of glucose solution, feed intake was restored. Blood samples were taken at 0 min, 15 min, 30 min, 45 min, 60 min and 120 min respectively, and urine samples were collected at 0-24 h to test blood glucose, urine glucose (mg/200 g) and urine volume respectively.
(§4) All values are represented as averages. Statistical analysis was performed using Graphpad Prism 6 one-way analysis of variance and Tukey's multiple comparison test. P value of less than 0.05 is considered statistically significant.

SD rats [2] = experiment: Oral glucose tolerance test (OGTT) in rats, first time; format: in vivo; settings: first study, male SD rats, 10 mg/kg single intragastric administration
Method: Experimental Example 3. Study on In Vivo Efficacy of Oral Glucose Tolerance Test (OGTT) in Rats: Study on the In Vivo Efficacy of Oral Glucose Tolerance Test (OGTT) in Rats for the First Time
as §1, §2, §3, §4

Human-SGLT2 = molecular target: T1, Human-SGLT2 (Homo sapiens, UniProt P31639); experiment: SGLT2 glucose transport test ([14C]-labeled methyl a-D-glucopyranoside uptake); format: cell-based; settings: cells stably expressing Human-SGLT2; 37° C., 2 hours
T1 sequence (P31639 1-672): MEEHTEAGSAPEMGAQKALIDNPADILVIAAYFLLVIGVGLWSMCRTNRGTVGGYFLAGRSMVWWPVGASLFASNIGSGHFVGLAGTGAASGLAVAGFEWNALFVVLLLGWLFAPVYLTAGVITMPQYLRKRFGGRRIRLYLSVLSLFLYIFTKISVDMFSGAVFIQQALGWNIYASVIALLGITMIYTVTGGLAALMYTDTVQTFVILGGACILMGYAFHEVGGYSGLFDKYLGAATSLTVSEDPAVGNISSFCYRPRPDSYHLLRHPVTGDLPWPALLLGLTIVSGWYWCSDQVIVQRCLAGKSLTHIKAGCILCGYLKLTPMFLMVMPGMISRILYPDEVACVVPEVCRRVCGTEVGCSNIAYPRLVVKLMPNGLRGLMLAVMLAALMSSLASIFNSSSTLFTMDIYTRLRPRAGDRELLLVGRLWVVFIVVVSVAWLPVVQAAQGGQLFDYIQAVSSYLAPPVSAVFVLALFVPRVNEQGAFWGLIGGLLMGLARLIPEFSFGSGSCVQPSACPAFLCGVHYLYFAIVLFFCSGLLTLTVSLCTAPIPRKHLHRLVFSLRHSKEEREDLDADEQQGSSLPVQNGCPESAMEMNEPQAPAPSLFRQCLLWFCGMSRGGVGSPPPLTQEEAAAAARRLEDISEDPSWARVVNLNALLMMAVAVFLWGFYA
Method: Biological Activity Experiment 2: SGLT2 Glucose Transport Test.
(§5) 1. Purpose of the Experiment:
The effect of the compound on the glucose transport activity of SGLT2 transporter was detected by measuring the amount of [^14C]-labeled glucose entering cells with high expression of Human-SGLT2.
The cells stably expressing Human-SGLT2 were constructed by Wuxi AppTec(Shanghai) Co., Ltd. SGLT2 cells were laid in 96-well cell culture plate (Greiner) and cultured overnight in 5% CO2 environment at 37° C.
2.2. SGLT2 Glucose Transport Test.
(§6) 1) Experimental buffer, including: 10 mM 4-hydroxyethylpiperazineethanesulfonic acid (HEPES), 1.2 mM magnesium chloride (MgCl2), 4.7 mM potassium chloride (KCl), 2.2 mM calcium chloride (CaCl2) and 120 mM sodium chloride (NaCl).
2) Stop buffer, including: 10 mM 4-hydroxyethylpiperazineethanesulfonic acid (HEPES), 1.2 mM magnesium chloride (MgCl2), 4.7 mM potassium chloride (KCl), 2.2 mM calcium chloride (CaCl2), 120 mM sodium chloride (NaCl) and 1 μM LX4211.
3) Compounds were serially diluted in 100% dimethyl sulfoxide (DMSO) starting at 10 uM and make a 5-folds, 8 points serials compound dilutions.
4) 6 μM [^14C]-labeled methyl a-D-lucopyranosid was prepared with the experimental buffer.
5) The cells were treated with 49 uL of the experimental buffer, 1 μL of the gradient diluted compound and 50 μL of the 6 μM [^14C]-labeled methyl a-D-lucopyranosid solution at 37° C. for 2 hours.
6) The solution was sucked out from holes, and the cells were rinsed with the stop buffer for 3 times.
7) The cells were lysed with 50 ul of 10% sodium hydroxide solution, the cell lysate was sucked into a scintillation tube, into which 2 mL scintillation solution was then added.
8) The data were read with an isotope detector Tricarb.
9) The IC50 value of the tested compound was obtained by the calculation formula: log(inhibitor) vs. response—Variable slope, using GraphPad Prism 5.0 software.

[3] = In vivo pharmacokinetics in rats; settings: male SD rats
Text: Study on the In Vivo Pharmacokinetics in Rats
The purpose of the experiment: Male SD rats were used as test animals and were given a single administration to determine the plasma concentration of the compound and evaluate the pharmacokinetic behavior.
Experimental method: Six healthy adult male SD rats were divided into 2 groups, with 3 rats in an intravenous injection group and 3 rats in an oral administration group. In the intravenous injection group, the test compound was mixed with an appropriate amount of vehicle (10% N-methyl pyrrolidone (NMP)/10% polyethylene glycol-15 hydroxystearate (available from solutol)/80% water), then vortexed and sonicated to prepare 0.2 mg/mL clear solution, which was filtered by microporous membrane. In the oral administration group, 10% N-methyl pyrrolidone (NMP)/10% polyethylene glycol-15 hydroxy stearate (available from solutol)/80% water was used as a vehicle and mixed with the test compound, then vortexed and sonicated to prepare 0.40 mg/mL clear solution. The rats were given intravenous administration at a dose of 1 mg/kg or oral administration at a dose of 2 mg/kg. Whole blood was collected at a certain period of time to prepare the plasma. The drug concentration of the plasma was analyzed by LC-MS/MS method, and the pharmacokinetic parameters were calculated using Phoenix WinNonlin software (Pharsight Company, USA).

Human-SGLT1 = molecular target: T2, Human-SGLT1 (Homo sapiens, UniProt P13866); experiment: SGLT1 glucose transport test ([14C]-labeled methyl a-D-glucopyranoside uptake); format: cell-based; settings: cells stably expressing Human-SGLT1; 37° C., 2 hours
T2 sequence (P13866 1-664): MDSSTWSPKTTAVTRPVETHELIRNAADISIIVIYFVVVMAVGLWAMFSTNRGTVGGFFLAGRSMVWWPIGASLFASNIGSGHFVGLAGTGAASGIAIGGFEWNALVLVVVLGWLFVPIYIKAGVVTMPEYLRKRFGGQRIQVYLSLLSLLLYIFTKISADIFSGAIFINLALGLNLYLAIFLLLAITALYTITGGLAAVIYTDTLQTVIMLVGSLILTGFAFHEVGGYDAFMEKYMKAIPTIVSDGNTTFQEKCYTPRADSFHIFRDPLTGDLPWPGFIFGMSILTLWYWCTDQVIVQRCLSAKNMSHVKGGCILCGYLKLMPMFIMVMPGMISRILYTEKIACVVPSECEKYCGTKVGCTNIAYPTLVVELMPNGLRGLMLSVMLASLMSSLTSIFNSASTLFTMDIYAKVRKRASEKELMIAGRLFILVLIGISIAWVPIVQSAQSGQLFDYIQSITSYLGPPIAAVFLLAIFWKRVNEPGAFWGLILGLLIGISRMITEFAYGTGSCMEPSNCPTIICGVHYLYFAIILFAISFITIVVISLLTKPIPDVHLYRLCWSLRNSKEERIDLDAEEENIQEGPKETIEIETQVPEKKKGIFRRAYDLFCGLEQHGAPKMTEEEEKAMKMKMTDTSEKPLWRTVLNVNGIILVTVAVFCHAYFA
Text: Biological Activity Experiment 1: SGLT1 Glucose Transport Test.
as §5
The effect of the compound on the glucose transport activity of SGLT1 transporter was detected by measuring the amount of [′C]-labeled glucose entering cells with high expression of Human-SGLT1.
The cells stably expressing Human-SGLT1 were constructed by Wuxi AppTec(Shanghai) Co., Ltd. SGLT1 cells were laid in Cytostar-T (PerkinElmer) 96-well cell culture plate and cultured overnight in 5% CO2 environment at 37° C.
2.2. SGLT1 Glucose Transport Test.
as §6
2) Compounds were serially diluted in 100% dimethyl sulfoxide (DMSO) starting at 1 mM and make a 5-folds, 8 points serials compound dilutions.
3) 3 μM [′^4C]-labeled methyl a-D-glucopyranoside was prepared with the experimental buffer.
4) The cells were treated with 49 uL of the experimental buffer, 1 μL of the gradient diluted compound and 50 μL of the 3 μM [^14C]-labeled methyl a-D-lucopyranosid solution at 37° C. for 2 hours.
5) The data were read with an isotope detector Micro beta Reader.
6) The IC50 value of the tested compound was obtained by the calculation formula: log(inhibitor) vs. response—Variable slope, using GraphPad Prism 5.0 software.

Compound	pIC50 (Human-SGLT2)	pIC50 (Human-SGLT1)	further results
CCOc1ccc(Cc2cc([C@@H]3O[C@H](SC)[C@@H](O)[C@H](O)[C@H]3O)ccc2Cl)cc1 [Sotagliflozin, reference compound]	8.94		OGTT blood glucose level AUC0-2 hr (SD rats [1]; glucose 2 g/kg): 790 mmol/L/min; Urine glucose level (SD rats [1]; urine 0-24 h): 2843.2**** mg/200 g, BW; Urine volume (SD rats [1]; urine 0-24 h): 26.4**** mL/200 g, BW; OGTT blood glucose level AUC0-2 hr (SD rats [2]; glucose 2 g/kg): 823 mmol/L/min; Urine glucose level (SD rats [2]; urine 0-24 h): 2424.0**** mg/200 g, BW; Urine volume (SD rats [2]; urine 0-24 h): 39.74**** mL/200 gBW; Oral DNAUC (AUCPO/Dose) ([3]; oral 2 mg/kg): 969 nM · h/mpk; clearance ([3]; rat, plasma, intravenous 1 mg/kg or oral 2 mg/kg, read-out: Cl (clearance rate)): 22.6 mL/min/kg; half-life ([3]; rat, plasma, intravenous 1 mg/kg or oral 2 mg/kg, read-out: T1/2 (half-life) (converted)): 1.27 h; Vd ([3]; rat, plasma, intravenous 1 mg/kg or oral 2 mg/kg, read-out: Vdss (distribution volume)): 2.01 L/kg; bioavailability ([3]; rat, plasma, intravenous 1 mg/kg, oral 2 mg/kg, read-out: F % (oral bioavailability)): 54.8%; Cmax ([3]; rat, single administration, intravenous 1 mg/kg or oral 2 mg/kg, plasma): 364 nM
COc1ccc(C2O[C@H](SC)[C@@H](O)[C@H](O)[C@H]2O)cc1Cc1ccc(C2=CCC(F)(F)CC2)cc1 (stereo partly drawn) [WXD008]	8.27	7.76	
CS[C@H]1O[C@@H](c2ccc(C)c(Cc3ccc(C4=CCC5(CC4)OCCO5)cc3)c2)[C@H](O)[C@@H](O)[C@@H]1O [WXD002]	9.00	7.25	
CS[C@H]1OC(c2ccc(C)c(Cc3ccc(C4=CCCCC4)cc3)c2)[C@H](O)[C@@H](O)[C@@H]1O (stereo partly drawn) [WXD005]	8.75	7.66	
CS[C@H]1O[C@@H](c2ccc(C)c(Cc3ccc(C4=CCC(F)(F)CC4)s3)c2)[C@H](O)[C@@H](O)[C@@H]1O [WXD006]	8.99	7.41	
CS[C@H]1OC(c2ccc(F)c(Cc3ccc(C4=CCC(F)(F)CC4)cc3)c2)[C@H](O)[C@@H](O)[C@@H]1O (stereo partly drawn) [WXD009]	8.33	6.63	
CS[C@H]1OC(c2ccc(C)c(Cc3ccc(C4=CCOCC4)cc3)c2)[C@H](O)[C@@H](O)[C@@H]1O (stereo partly drawn) [WXD004]	8.83	7.85	
CS[C@H]1O[C@@H](c2ccc(C)c(Cc3ccc(C4=CCOCC4)s3)c2)[C@H](O)[C@@H](O)[C@@H]1O [WXD007]	8.87	7.52	
